Drawing on patent US8273761B2, “Tricyclic compound and medical use thereof” (Takeda Pharmaceutical Company Limited, priority 2006, dated 2012), this text covers IC50 for 18 compounds.

T1 sequence (P48039 whole entry): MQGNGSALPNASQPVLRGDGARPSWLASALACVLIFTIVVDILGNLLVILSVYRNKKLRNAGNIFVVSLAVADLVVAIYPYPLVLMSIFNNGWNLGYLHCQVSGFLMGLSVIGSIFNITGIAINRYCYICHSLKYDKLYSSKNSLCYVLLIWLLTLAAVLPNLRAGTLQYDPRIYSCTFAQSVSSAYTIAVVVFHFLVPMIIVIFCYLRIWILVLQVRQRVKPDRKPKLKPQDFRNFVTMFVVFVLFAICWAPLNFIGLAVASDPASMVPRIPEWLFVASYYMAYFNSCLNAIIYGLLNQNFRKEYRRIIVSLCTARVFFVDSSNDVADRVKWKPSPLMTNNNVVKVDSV

The test addresses T1, human melatonin 1 receptors (human MT1 receptors) (Homo sapiens, UniProt P48039).
T1 construct: expressed in transfected cells
Briefly: Melatonin receptor binding inhibitory test (MT1). Particulars: 2-[125I] Iodomelatonin 400 pM solution, membrane fraction of CHO-hMelR7 cells, 25° C. for 2.5 hr. The method, then: Biochim Biophys Acta. Vol. 1219(2), pp. 251-259, 1994) to give plasmid pAKKO-hMelR7 for animal cell expression. CHO/dhfr-cells (ATCC, #CRL-9096) were plated at a concentration of 0.3×10^6 cells/dish in a 6 cm culture dish (Becton Dickinson), and cultured under the conditions of 37° C., 5% CO2 for 48 hr. The cells were transfected with pAKKO-hMelR7 plasmid DNA (5 μg) using […] Transfection Kit (Amersham, #27-9268-01). The transfected cells were cultured in Dulbecco's modified Eagle medium (DMEM) (Sigma, #D6046) containing 10% dialyzed FBS ([…]), 1× Non-Essential Amino Acid (Invitrogen, #11140-050) and 50 μg/mL Gentamycin (Invitrogen, #15750-060), and the cell line that stably expressed the plasmid gene was selected. By a receptor binding assay using 2-[^125I] […] (3) Preparation of Cellular Membrane Fraction of CHO Cell (CHO-hMelR7 and CHO-hMT2) Stably Expressing Human MT1 and MT2 Receptors CHO-hMelR7 and CHO-hMT2 cells were plated using Cellfactory (Nunc, #170009) under the conditions of 1×10^8 cells/2000 mL/flask. The cells were grown to confluent, and recovered by the following method. As the medium for CHO-hMelR7 and CHO-hMT2, MEM α containing 10% FBS and penicillin/streptomycin was used. 300 ng/mL of geneticin was added to the medium for CHO-hMT2. The medium was discarded, cells were washed twice with 200 mL of EDTA/PBS(-), 200 mL of EDTA/PBS(-) was further added, and the cells were stood still at room temperature for 20 min until they were released. The cells were recovered in four 50 mL tubes (Becton Dickinson, #352070), and centrifuged at 1,500 rpm for 10 min at 4° C. using a low speed cooling centrifuge (Hitachi, CF7D2). The supernatant was discarded, the pellets in the four tubes were suspended in 10 mL of PBS(-), and combined in one tube (Becton Dickinson, #352070). The mixture was further centrifuged at 1,500 rpm for 10 min at 4° C., and the obtained pellets were suspended in 20 mL of ice-cooled homogenizing buffer [10 mM NaHCO3, 5 mM EDTA, Protease inhibitor Complete (Roche), pH 7.4]. The cell suspension was homogenized 3 times using a polytron homogenizer at 20,000 rpm for 30 sec. The obtained homogenate was centrifuged (2,000 rpm, 10 min, 4° C.) using a low speed cooling centrifuge. The supernatant was recovered in an ultracentrifugation tube and ultracentrifuged (40,000 rpm, 60 min, 4° C.) using an ultracentrifuge (Beckman, […]). To the obtained pellets was added a suspending buffer [50 mM Tris-HCl, 1 mM EDTA, Protease inhibitor Complete (Roche), pH 7.4], and the pellets were suspended by pipetting. The protein concentration of this suspension was measured, diluted to 2 mg/mL to give cellular membrane fractions of CHO-hMelR7 and CHO-hMT2 cells. […] Protein was quantified using BCA protein assay kit (Pierce) with BSA as the standard. (4) Preparation of Membrane Fraction Suspension Immediately before use, the membrane fractions of CHO-hMelR7 and CHO-hMT2 cells of the above-mentioned (3) were diluted 20-fold with assay buffer (50 mM Tris-HCl, pH 7.7). (5) Preparation of 2-[^125I] […] (6) Binding Reaction The assay buffer (80 μL) of the above-mentioned (4) was added to each well of a 96-well plate (type 3363, Corning). […] (7) Measurement Using a cell harvester (PerkinElmer), the binding reaction mixture in each well of the 96-well plate was transferred to a treated (immersed in 50 mM Tris, pH 7.7 in advance) filter plate (UniFilter GF/C, PerkinElmer) and filtered. After filtration, the plate was washed 4 times with the assay buffer, and dried in a dryer (42° C.) for 2 hr or more. 25 μL of a liquid scintillator (MicroScint O, PerkinElmer) was added to each well of the filter plate after drying, and the luminescence of scintillator was measured by TopCount (PerkinElmer) for 1 min. Specific binding is a value obtained by subtracting nonspecific binding from the total binding.
What is called IC50 is the point on the concentration scale where inhibition reaches its midpoint. A low value points to inhibition by little substance. The compound `CC(=O)NCCc1cnn2ccc3c(c12)CCO3` [Example 3, N-[2-(8,9-dihydrofuro[3,2-c]pyrazolo[1,5-a]pyridin-1-yl)ethyl]acetamide] showed a half-maximal inhibitory concentration (IC50) of no more than 100 nM.

Take `CCC(=O)NCCc1cnn2ccc3c(c12)CCO3` [Example 4, N-[2-(8,9-dihydrofuro[3,2-c]pyrazolo[1,5-a]pyridin-1-yl)ethyl]propanamide]: the concentration for half-maximal inhibition (IC50) is no more than 100 nM. For the compound `CCc1nn2ccc3c(c2c1C(C)CNC(C)=O)CCO3` (stereo not drawn) [Example 37, N-[2-(2-ethyl-8,9-dihydrofuro[3,2-c]pyrazolo[1,5-a]pyridin-1-yl)propyl]acetamide], the concentration for half-maximal inhibition (IC50) is no more than 100 nM. As for `CC(=O)NCCc1c(-c2ccc(F)cc2)nn2ccc3c(c12)CCO3` [Example 15, N-{2-[2-(4-fluorophenyl)-8,9-dihydrofuro[3,2-c]pyrazolo[1,5-a]pyridin-1-yl]ethyl}acetamide], the IC50 was no more than 100 nM. With `CCC(=O)NCCC1CCc2cnc3c(c21)CCO3` (single isomer, unassigned) [Example 23, optically active N-[2-(1,6,7,8-tetrahydro-2H-cyclopenta[d]furo[2,3-b]pyridin-8-yl)ethyl]propanamide], the IC50 was no more than 100 nM. Turning to `CCC(=O)NCCc1c(-c2ccc(F)cc2)nn2ccc3c(c12)CCO3` [Example 16, N-{2-[2-(4-fluorophenyl)-8,9-dihydrofuro[3,2-c]pyrazolo[1,5-a]pyridin-1-yl]ethyl}propanamide], the IC50 was no more than 100 nM. Compound `CC(=O)NCCc1c(-c2ccccc2)cn2ccc3c(c12)CCO3` [Example 17, N-[2-(8-phenyl-1,2-dihydrofuro[2,3-g]indolizin-9-yl)ethyl]acetamide] returned an IC50 of no more than 100 nM. For the compound `CC(=O)NCCC1CCc2cnc3c(c21)CCO3` (single isomer, unassigned) [Example 20, optically active N-[2-(1,6,7,8-tetrahydro-2H-cyclopenta[d]furo[2,3-b]pyridin-8-yl)ethyl]acetamide], the half-inhibitory concentration (IC50) was no more than 100 nM.

For `CCC(=O)NCCC1=CCc2cnc3c(c21)CCO3` [Example 29, N-[2-(1,6-dihydro-2H-cyclopenta[d]furo[2,3-b]pyridin-8-yl)ethyl]propanamide], the IC50 was no more than 100 nM. With `CCc1nn2ccc3oc(C)cc3c2c1CCNC(C)=O` [Example 39, N-[2-(2-ethyl-8-methylfuro[3,2-c]pyrazolo[1,5-a]pyridin-1-yl)ethyl]acetamide] the figure was no more than 100 nM; with `CCC(=O)NCCc1c(-c2ccccc2)nn2ccc3occc3c12` [Example 2, N-[2-(2-phenylfuro[3,2-c]pyrazolo[1,5-a]pyridin-1-yl)ethyl]propanamide], no more than 100 nM; with `CCC(=O)NCCC1=C(C(C)C)Cc2cnc3c(c21)CCO3` [Example 31, N-[2-(7-isopropyl-1,6-dihydro-2H-cyclopenta[d]furo[2,3-b]pyridin-8-yl)ethyl]propanamide], no more than 100 nM. Regarding `CCC(=O)NCC(C)c1c(CC)nn2ccc3c(c12)CCO3` (stereo not drawn) [Example 38, N-[2-(2-ethyl-8,9-dihydrofuro[3,2-c]pyrazolo[1,5-a]pyridin-1-yl)propyl]propanamide], the half-inhibitory concentration (IC50) was no more than 100 nM. `CCC(=O)NCCc1c(-c2ccccc2)nn2ccc3c(c12)CCO3` [Example 8, N-[2-(2-phenyl-8,9-dihydrofuro[3,2-c]pyrazolo[1,5-a]pyridin-1-yl)ethyl]propanamide] gave an IC50 of no more than 100 nM. The compound `CCC(=O)NCCC1CCc2cnc3c(c21)CCO3` (stereo not drawn) [Example 22, N-[2-(1,6,7,8-tetrahydro-2H-cyclopenta[d]furo[2,3-b]pyridin-8-yl)ethyl]propanamide] registered a 50% inhibitory concentration (IC50) of no more than 100 nM. Consider `CCCC(=O)NCCc1cnn2ccc3c(c12)CCO3` [Example 5, N-[2-(8,9-dihydrofuro[3,2-c]pyrazolo[1,5-a]pyridin-1-yl)ethyl]butanamide], for which the IC50 is no more than 100 nM. For the compound `CC(=O)NCCC1=C(C(C)C)Cc2cnc3c(c21)CCO3` [Example 30, N-[2-(7-isopropyl-1,6-dihydro-2H-cyclopenta[d]furo[2,3-b]pyridin-8-yl)ethyl]acetamide], the 50% inhibitory concentration (IC50) is no more than 100 nM.

The compound `CCCC(=O)NCCC1CCc2cnc3c(c21)CCO3` (stereo not drawn) [Example 25, N-[2-(1,6,7,8-tetrahydro-2H-cyclopenta[d]furo[2,3-b]pyridin-8-yl)ethyl]butanamide] displayed a 50% inhibitory concentration (IC50) of no more than 100 nM.
